Where “and” joins values, the source holds several entries; their conditions need not be identical. Identical values can stand only once.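 Compound exposure: 48 hours, 5 concentrations, 96-well plates. GI50: concentration for 50% inhibition of growth. Definition used: TGI = concentration required for complete inhibition of growth.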

Among the test systems are HCT-15 colon; A549 NSCLC; EKVX NSCLC; OVCAR-3 ovarian; HCT-116 colon; MOLT-4 leukemia; NCI-H522 lung; CAKI-1 renal; SF-295 CNS.
Holding throughout (experiment): NCI anticancer screen, dose series, 48 h

For the compound `O=C1C=C2CCCC2C(C(=O)O)(C(=O)O)C1` (stereo not drawn), the TGI in the experiment on HCT-15 colon, with A549 NSCLC, with EKVX NSCLC, in the experiment with OVCAR-3 ovarian, in the experiment on HCT-116 colon and in the experiment with MOLT-4 leukemia was more than 100 µM in each case. The TGI with NCI-H522 lung, in the experiment on CAKI-1 renal and in the experiment with SF-295 CNS was more than 100 µM throughout.
`O=C(N=c1nc(NC(=O)c2ccccc2)ss1)c1ccccc1`: the TGI was more than 100 µM with HCT-15 colon; 49.7 µM in the experiment on A549 NSCLC; more than 100 µM in the experiment with EKVX NSCLC; 55.7 µM in the experiment with OVCAR-3 ovarian; more than 100 µM in the experiment with HCT-116 colon; more than 100 µM with MOLT-4 leukemia. The TGI is 42.4 µM in the experiment on NCI-H522 lung, 75.8 µM in the experiment on CAKI-1 renal and 70.6 µM in the experiment on SF-295 CNS.
For the compound `O=C(CC1C(=O)Nc2ccccc2S1(=O)=O)Nc1ccc(Cl)cc1` (stereo not drawn), the TGI with HCT-15 colon was more than 100 µM; in the experiment with A549 NSCLC it was more than 100 µM; in the experiment with OVCAR-3 ovarian, 39.4 µM; with HCT-116 colon, more than 100 µM; in the experiment on MOLT-4 leukemia, 37.6 µM; with NCI-H522 lung, 36.4 µM. In addition, the TGI in the experiment on CAKI-1 renal was 43.5 µM; in the experiment with SF-295 CNS it was more than 100 µM.
For the compound `N#C/C(=C1\OC(=N)C(c2ccccc2)C1=O)c1ccccc1` (stereo not drawn), the TGI is 60.2 µM in the experiment with HCT-15 colon; more than 100 µM with A549 NSCLC; more than 73.2 µM with EKVX NSCLC; more than 67.7 µM in the experiment with OVCAR-3 ovarian; 31.6 µM in the experiment with HCT-116 colon; 74.6 µM with MOLT-4 leukemia. For the same compound, the figures for the TGI with NCI-H522 lung, with CAKI-1 renal and in the experiment on SF-295 CNS were 22.2 µM, more than 96.6 µM and more than 100 µM, respectively.
As to `Cc1ccc(/C=C/C(=O)c2sc(-n3nc(-c4ccccc4)cc3-c3ccccc3)nc2C)cc1`, the TGI in the experiment on HCT-15 colon, in the experiment with A549 NSCLC, in the experiment with EKVX NSCLC, in the experiment on OVCAR-3 ovarian, with MOLT-4 leukemia and with NCI-H522 lung was more than 100 µM throughout. Moreover, the TGI in the experiment with CAKI-1 renal and with SF-295 CNS was more than 100 µM in each case.
For the compound `Nc1nc2c(-c3ccc([N+](=O)[O-])cc3)nnn2c2ccccc12`, the TGI in the experiment on HCT-15 colon is more than 100 µM; in the experiment on A549 NSCLC, more than 100 µM; with EKVX NSCLC it was more than 100 µM; with OVCAR-3 ovarian it was 95.3 µM; in the experiment on MOLT-4 leukemia, more than 100 µM; in the experiment with CAKI-1 renal, more than 100 µM. Moreover, in the experiment with SF-295 CNS, the TGI was more than 100 µM.
`COc1ccc(/C=C/C(=O)c2c(-c3ccccc3)nn(C)c(=O)c2N2CCOCC2)cc1`: the TGI with HCT-15 colon, in the experiment with A549 NSCLC, in the experiment on EKVX NSCLC, in the experiment with HCT-116 colon, with MOLT-4 leukemia and with NCI-H522 lung was more than 100 µM throughout. In addition, the TGI with CAKI-1 renal and with SF-295 CNS was more than 100 µM in each case.
As to `C/C=C/C(=O)[O-].C/C=C/C(=O)[O-].N.N.N.N.[Co+3].[O-][Cl+3]([O-])([O-])[O-]`, the GI50 with HCT-15 colon, with A549 NSCLC, in the experiment on EKVX NSCLC, in the experiment on OVCAR-3 ovarian, in the experiment on HCT-116 colon and in the experiment with MOLT-4 leukemia was more than 100 µM in each case. Moreover, the GI50 in the experiment with NCI-H522 lung was 83.9 µM; in the experiment with SF-295 CNS, more than 100 µM. Moreover, the TGI with HCT-15 colon, in the experiment on A549 NSCLC, in the experiment with EKVX NSCLC, in the experiment with OVCAR-3 ovarian, in the experiment with HCT-116 colon and in the experiment with MOLT-4 leukemia was more than 100 µM each time. In addition, the TGI with NCI-H522 lung and in the experiment on SF-295 CNS was more than 100 µM throughout.
Consider `COc1ccc2c(c1)/C(=C\c1c(-c3cc(OC)ccc3OC)nc3sccn13)C(=O)N2`, for which the GI50 in the experiment on HCT-15 colon was 7.19 µM and 5.37 µM; with A549 NSCLC, 48.6 µM; in the experiment on OVCAR-3 ovarian it was 6.38 µM and 3.51 µM; with HCT-116 colon, 1.42 µM; in the experiment on CAKI-1 renal, 3.82 µM; in the experiment with SF-295 CNS, 5.31 µM and 18.2 µM. Also, the TGI is 18.7 µM with HCT-15 colon; more than 100 µM in the experiment on A549 NSCLC; 14.3 µM in the experiment on OVCAR-3 ovarian; 3.48 µM with HCT-116 colon; 13.8 µM with CAKI-1 renal; 44.1 µM in the experiment with SF-295 CNS.
Take `NS(=O)(=O)c1ccc(NC(=O)C2C(=O)C(=O)N(c3ccc(S(N)(=O)=O)cc3)C2=O)cc1` (stereo not drawn): the TGI with HCT-15 colon, in the experiment with A549 NSCLC, with EKVX NSCLC, in the experiment with OVCAR-3 ovarian, in the experiment with HCT-116 colon and in the experiment with MOLT-4 leukemia was more than 100 µM each time. Further, the TGI in the experiment with NCI-H522 lung, in the experiment with CAKI-1 renal and with SF-295 CNS was more than 100 µM in each case.
As to `CC1(C)c2ccccc2N2O[C@@H]3C(=O)N(c4ccccc4)C(=O)[C@@H]3C21c1ccccc1` (stereo partly drawn), the TGI in the experiment with HCT-15 colon, in the experiment with A549 NSCLC, in the experiment with EKVX NSCLC, in the experiment on OVCAR-3 ovarian, in the experiment with MOLT-4 leukemia and with NCI-H522 lung was more than 100 µM in each case. Also, the TGI with CAKI-1 renal and with SF-295 CNS was more than 100 µM in each case.
For `CCCCNC(=S)OCCC(C)CCCC(C)C` (stereo not drawn), the TGI in the experiment on HCT-15 colon, with A549 NSCLC, in the experiment on EKVX NSCLC, with HCT-116 colon, with MOLT-4 leukemia and in the experiment on CAKI-1 renal was more than 100 µM each time. In addition, the TGI with SF-295 CNS is more than 100 µM.
Take `O=C(CCC(=O)Nc1cccc(C(F)(F)F)c1)CC(=O)c1ccc2ccccc2c1`: the TGI with HCT-15 colon, with A549 NSCLC, in the experiment with EKVX NSCLC, with OVCAR-3 ovarian, with HCT-116 colon and in the experiment on MOLT-4 leukemia was more than 100 µM in each case. Moreover, the TGI in the experiment on NCI-H522 lung, in the experiment with CAKI-1 renal and with SF-295 CNS was more than 100 µM in each case.
For the compound `CC1C=CC(C(N)C(=O)O)O1` (stereo not drawn), the TGI in the experiment with HCT-15 colon, in the experiment on A549 NSCLC, in the experiment with EKVX NSCLC, in the experiment with OVCAR-3 ovarian, in the experiment with HCT-116 colon and in the experiment on MOLT-4 leukemia was more than 100 µM each time. The TGI with NCI-H522 lung, in the experiment on CAKI-1 renal and in the experiment on SF-295 CNS was more than 100 µM throughout.

Values taken from PubChem BioAssay (NCI).
